ChEMBL document CHEMBL4421718, “Quinoxaline derivatives as gpr6 modulators” (2015)

Key:
[1] = target: G-protein coupled receptor 6 (Homo sapiens, UniProt P46095); test: Modulation activity at GPR6 receptor (unknown origin) expressed in CHO-K1 cells assessed as inhibition of constitutive cAMP activity incubated for 45 mins by Perkin Elmer Lance HTRF Ultrac-AMP assay; format: functional, cell-based
Rattus norvegicus = test: Reversal of haloperidol-induced catalepsy in Sprague-Dawley rat model of Parkinson's disease assessed as reduction in catalepsy intensity index at 10 mg/kg, sc dosed along with haloperidol and measured after 30 mins relative to untreated control; format: functional; design: scale not given: the % may be the effect or the level left
Mus musculus [2] = test: Reversal of haloperidol-induced catalepsy in C57BL6 mouse model of Parkinson's disease assessed as reduction in catalepsy intensity index at 10 mg/kg, sc dosed along with haloperidol and measured after 120 mins relative to untreated control; format: functional; design: scale not given: the % may be the effect or the level left
Mus musculus [3] = test: Reversal of haloperidol-induced catalepsy in C57BL6 mouse model of Parkinson's disease assessed as reduction in catalepsy intensity index at 30 mg/kg, ip dosed along with haloperidol and measured after 30 mins relative to untreated control; format: functional; design: scale not given: the % may be the effect or the level left
Mus musculus [4] = test: Reversal of haloperidol-induced catalepsy in C57BL6 mouse model of Parkinson's disease assessed as reduction in catalepsy intensity index at 10 mg/kg, ip dosed along with haloperidol and measured after 30 mins relative to untreated control; format: functional; design: scale not given: the % may be the effect or the level left
Mus musculus [5] = test: Reversal of haloperidol-induced catalepsy in C57BL6 mouse model of Parkinson's disease assessed as reduction in catalepsy intensity index at 30 mg/kg, ip dosed along with haloperidol and measured after 120 mins relative to untreated control; format: functional; design: scale not given: the % may be the effect or the level left
Mus musculus [6] = test: Reversal of haloperidol-induced catalepsy in C57BL6 mouse model of Parkinson's disease assessed as reduction in catalepsy intensity index at 10 mg/kg, ip dosed along with haloperidol and measured after 120 mins relative to untreated control; format: functional; design: scale not given: the % may be the effect or the level left

Chain of G-protein coupled receptor 6 (P46095 whole entry): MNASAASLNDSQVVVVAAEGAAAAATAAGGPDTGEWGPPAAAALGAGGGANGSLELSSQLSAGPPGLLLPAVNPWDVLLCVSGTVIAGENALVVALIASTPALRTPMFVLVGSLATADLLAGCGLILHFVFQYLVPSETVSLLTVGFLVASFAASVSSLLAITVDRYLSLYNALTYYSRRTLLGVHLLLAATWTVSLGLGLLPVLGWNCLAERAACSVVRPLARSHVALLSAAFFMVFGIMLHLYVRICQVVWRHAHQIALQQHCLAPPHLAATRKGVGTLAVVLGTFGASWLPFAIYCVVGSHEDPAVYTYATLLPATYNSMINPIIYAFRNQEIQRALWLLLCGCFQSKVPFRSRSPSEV

SMILES	IC50 [1] [nM]	further results
COc1ccc(C(=O)N2CCN(c3nc4ccccc4nc3NC3CC3)CC2)cc1Cl	10100 to 17700	–
Cc1cccc(CN2CCN(c3nc4ncccc4nc3NC3CC3)CC2)c1	840 to 24600	–
N#Cc1ccc2nc(NC3CC3)c(N3CCC(Cc4ccc(F)cc4F)CC3)nc2c1.O=C(O)C(F)(F)F	–	Activity (Rattus norvegicus): 36.9%; Activity (Mus musculus [2]): 25.1%
N#Cc1ccc2nc(NC3CC3)c(N3CCN(Cc4cc(Cl)ccc4Cl)CC3)nc2c1	–	Activity (Mus musculus [3]): 27.4%; Activity (Mus musculus [4]): 42%; Activity (Mus musculus [5]): 15.7%; Activity (Mus musculus [6]): 18.8%
Clc1ccc(Cl)c(CN2CCN(c3nc4ccccc4nc3NC3CC3)CC2)c1.O=C(O)C(F)(F)F	–	Activity (Mus musculus [3]): 48.1%; Activity (Mus musculus [5]): 41.4%
Clc1cccc(Cl)c1CN1CCN(c2nc3ccccc3nc2NC2CC2)CC1.O=C(O)C(F)(F)F	–	Activity (Mus musculus [3]): 40.4%; Activity (Mus musculus [5]): 29.6%
Clc1cccc(CN2CCN(c3nc4ccccc4nc3Nc3cccnc3)CC2)c1.O=C(O)C(F)(F)F	–	Activity (Mus musculus [3]): 13.6%; Activity (Mus musculus [5]): 15.4%
COc1ccc(OC2CCN(c3nc4cnncc4nc3NC3CC3)CC2)c(F)c1	36	–
Cc1nncc2nc(N3CCC(Oc4ccc(F)cc4F)CC3)c(NC(C)C)nc12	31	–
Cc1nnc(C)c2nc(N3CCC(Oc4ccc(F)cc4F)CC3)c(NC(C)C)nc12	60	–
COc1ccc(C(=O)C2CCN(c3nc4c(N5CCOCC5)nccc4nc3NC3CC3)CC2)c(F)c1	717	–
Fc1ccc(OC2CCN(c3nc4cnccc4nc3NC3CC3)CC2)c(F)c1	1100	–
COc1ccc(OC2CCN(c3nc4c(N5CCOCC5)nccc4nc3NC3CC3)CC2)c(F)c1	114	–
COc1ccc(C(=O)C2CCN(c3nc4c(C#N)nccc4nc3NC3CC3)CC2)c(F)c1	43	–
C[C@H](CO)Nc1nc2ccccc2nc1N1CCN(Cc2cc(Cl)ccc2Cl)CC1	1570	–
CC1CC1Nc1nc2cnncc2nc1N1CCC([C@@H](F)c2ccc(F)cc2F)CC1 (stereo partly specified)	145	–
CC(C)Nc1nc2ccccc2nc1N1CCC(Oc2ccc(Cl)cc2F)CC1	51	–
Fc1ccc(F)c(CN2CCN(c3nc4cncc(Cl)c4nc3NC3CC3)CC2)c1	62	–
Fc1ccc(CN2CCN(c3nc4cnccc4nc3NC3CC3)CC2)c(F)c1	21	–
COc1ccc(C(=O)C2CCN(c3nc4cnccc4nc3NC3CC3)CC2)c(F)c1	21	–
CC(C)Nc1nc2ccc(C#N)cc2nc1N1CCC([C@H](F)c2cc(F)ccc2F)CC1	82	–
Fc1ccc(CC2CCN(c3nc4cnccc4nc3NC3CC3)CC2)c(F)c1	19	–
CC(C)Nc1nc2ccc(C#N)cc2nc1N1CCN(Cc2cc(Cl)ccc2Cl)CC1	310	–
CN1CCN(C(=O)c2cc3nc(NC4CC4)c(N4CCC(C(=O)c5cc(C#N)ccc5F)CC4)nc3cn2)CC1	54	–
